Laboratory results as given in patent publication US10442804B2, “Compounds for the treatment of hepatitis B virus infection” (Gilead Sciences, Inc., priority 2017, dated 2019).
Read-outs that look alike come from different tables or passages of the source.

What was measured:
[1] = tested on: HBV-infected NTCP-HepG2 cells, secreted HBsAg; test: microbe, parasite or virus in culture; type: cell-based, hepatitis B virus (genotype D, AD38-derived); settings: secreted HBsAg in supernatant after 5 days, geometric mean of minimum four determinations, read-out: NTCP HBsAg EC50
Description: NTCP-HepG2 Antiviral Assay for Secreted HBsAg
HepG2 cells stably expressing sodium-taurocholate cotransporting polypeptide (NTCP-HepG2) were grown in Dulbecco's Modified Eagle Medium (DMEM) without sodium pyruvate (Thermo Fisher Scientific, Waltham, Mass.) supplemented with 10% fetal bovine serum, 2 mM L-glutamine, 1% penicillin/streptomycin, and 0.25 mg/mL G-418. NTCP-HepG2 cells were infected with 4000 genome equivalent per cell of genotype D (AD38-derived) HBV in DMEM without sodium pyruvate (Thermo Fisher Scientific, Waltham, Mass.) supplemented with 2% fetal bovine serum, 2 mM L-glutamine, 1% penicillin/streptomycin, 2.5% DMSO, and 4% PEG 8000 (Promega, Madison, Wis.). After 24-hour incubation, cells were washed three times with OptiMEM (Thermo Fisher Scientific, Waltham, Mass.) and fed with fresh DMEM without sodium pyruvate (Thermo Fisher Scientific, Waltham, Mass.) supplemented with 2% fetal bovine serum, 2 mM L-glutamine, 1% penicillin/streptomycin, and 2.5% DMSO. At 4 days after infection, infected NTCP-HepG2 cells were seeded on 384-well plates pre-coated with collagen at a density of 20000 cells per well containing serially diluted compounds of the present disclosure or DMSO (0.5%) in a final volume of 80 μl of DMEM without sodium pyruvate (Thermo Fisher Scientific, Waltham, Mass.) supplemented with 2% fetal bovine serum, 2 mM L-glutamine, 1% penicillin/streptomycin, and 1% DMSO. After an incubation time of 5 days, cell culture supernatant was collected and measured for HBsAg.
Secreted HBsAg in the supernatant were measured using a multiplex chemiluminescent MSD assay (Meso Scale Discovery, Rockville, Md.) using capture and detection antibody pairs specific for HBsAg. The EC50 values were calculated from the fit of the dose-response curves to a four-parameter equation. All EC50 values represent geometric mean values of a minimum of four determinations.

MT-4 cytotoxicity assay = type: cell-based, human; settings: human
Description: Biological Example 2: MT-4 Cytotoxicity Assay
The MT-4 cell line (HTLV-1 transformed, human T lymphoblastoid cells) was obtained from the NIH AIDS Reagent program (Bethesda, Md.). MT-4 cells were maintained in RPMI-1640 media (Thermo Fisher Scientific, Waltham, Mass.) supplemented with 10% fetal bovine serum, 100 Units/mL penicillin, and 100 μg/mL streptomycin. For the MT-4 cytotoxicity assay, 0.4 μL of serially diluted solutions of certain compounds disclosed herein were added to 40 μL of cell maintenance media in 384-well black, solid bottom plate using a Biomek FX workstation (Beckman Coulter, Brea, Calif.). Two thousand cells in 35 μL were added to each well using a Biotek uFlow Workstation (Biotek, Winooski, Vt.). Each assay plate contained 10 μM puromycin (final concentration) and 0.5% DMSO in RPMI-1640 media as positive and negative controls, respectively. Assay plates were incubated for five days at 37° C. in an incubator set at 5% CO2 and 90% humidity. After five days, 22 μL of Cell Titer Glo reagent (Promega, Madison, Wis.) was added to the assay plates with a Biotek uFlow Workstation. Plates were subsequently placed on an Envision Plate Reader (Perkin Elmer, Waltham, Mass.) for five minutes before the luminescence signal was read. CC50 values were defined as the compound concentration that caused a 50% decrease in luminescence signal, and were calculated by non-linear regression using Pipeline Pilot software by applying a four parameter fit equation (Accelrys, San Diego, Calif.) and are reported in the following Table 1.

[2] = five days, Cell Titer Glo luminescence, read-out: MT-4 CC50

| Compound | EC50 ([1]; Hepatitis B virus, 120 h) [nM] | CC50 at 5 days (MT-4 cytotoxicity assay; [2]) [nM] | EC50 [1] [nM] | CC50 at 5 days (MT-4 cytotoxicity assay; MT-4 CC50) [nM] |
| --- | --- | --- | --- | --- |
| COCCCOc1cc2c(cc1OC)-c1cc(=O)c(C(=O)O)cn1N1[C@H]2CCC1(C)C [Example 15, (S)-11-methoxy-12-(3-methoxypropoxy)-3,3-dimethyl-8-oxo-2,3,8,13b-tetrahydro-1H-pyrido[2,1-a]pyrrolo[1,2-c]phthalazine-7-carboxylic acid] | 350 | > 10000 | – | – |
| COc1cc2c(cc1OCCCOC(F)(F)F)[C@H]1CCC(C)(C)N1n1cc(C(=O)O)c(=O)cc1-2 [Example 58, (R)-11-methoxy-3,3-dimethyl-8-oxo-12-(3-(trifluoromethoxy)propoxy)-2,3,8,13b-tetrahydro-1H-pyrido[2,1-a]pyrrolo[1,2-c]phthalazine-7-carboxylic acid] | 4.8 | 9300 | – | – |
| CC1(C)CC[C@@H]2c3cc(OCC45CC(C#N)(C4)C5)c(OC(F)F)cc3-c3cc(=O)c(C(=O)O)cn3N21 [Example 104, (R)-12-((3-cyanobicyclo[1.1.1]pentan-1-yl)methoxy)-11-(difluoromethoxy)-3,3-dimethyl-8-oxo-2,3,8,13b-tetrahydro-1H-pyrido[2,1-a]pyrrolo[1,2-c]phthalazine-7-carboxylic acid] | 2.7 | > 10000 | – | – |
| COCc1cc2c(cc1N1CC[C@@H](COC)C1)[C@H]1CCC(C)(C)N1n1cc(C(=O)O)c(=O)cc1-2 [Compound 117, (R)-11-(methoxymethyl)-12-((R)-3-(methoxymethyl)pyrrolidin-1-yl)-3,3-dimethyl-8-oxo-2,3,8,13b-tetrahydro-1H-pyrido[2,1-a]pyrrolo[1,2-c]phthalazine-7-carboxylic acid] | 5.3 | 9700 | – | – |
| COCc1cc2c(cc1OCCn1nc3ccccn3c1=O)[C@H]1CCC(C)(C)N1n1cc(C(=O)O)c(=O)cc1-2 [Example 95, (R)-11-(methoxymethyl)-3,3-dimethyl-8-oxo-12-(2-(3-oxo-[1,2,4]triazolo[4,3-a]pyridin-2(3H)-yl)ethoxy)-2,3,8,13b-tetrahydro-1H-pyrido[2,1-a]pyrrolo[1,2-c]phthalazine-7-carboxylic acid] | 4.6 | > 10000 | – | – |
| COc1cc2c(cc1OCCCOc1ccccc1)[C@H]1CCC(C)(C)N1n1cc(C(=O)O)c(=O)cc1-2 [Example 61] | 0.94 | 6000 | – | – |
| COCCCOc1cc2c(cc1C1CC1)-c1cc(=O)c(C(=O)O)cn1N1[C@@H]2COCC1(C)C [Example 101, (S)-12-cyclopropyl-13-(3-methoxypropoxy)-4,4-dimethyl-9-oxo-3,4,9,14b-tetrahydro-1H-[1,4]oxazino[3,4-a]pyrido[1,2-c]phthalazine-8-carboxylic acid] | 0.7 | 8200 | – | – |
| COCCCOc1cc2c(cc1OC(C)C)-c1cc(=O)c(C(=O)O)cn1N1[C@@H]2CCC1(C)C [Example 22, (R)-11-isopropoxy-12-(3-methoxypropoxy)-3,3-dimethyl-8-oxo-2,3,8,13b-tetrahydro-1H-pyrido[2,1-a]pyrrolo[1,2-c]phthalazine-7-carboxylic acid] | 12 | > 10000 | – | – |
| COCCCOc1cc2c(cc1OC)-c1cc(=O)c(C(=O)O)cn1N1[C@@H]2CCC1(C)C [Example 14, (R)-11-methoxy-12-(3-methoxypropoxy)-3,3-dimethyl-8-oxo-2,3,8,13b-tetrahydro-1H-pyrido[2,1-a]pyrrolo[1,2-c]phthalazine-7-carboxylic acid] | 2.1 | > 10000 | – | – |
| CCOc1cc2c(cc1OCCCOC)[C@H]1CCC(C)(C)N1n1cc(C(=O)O)c(=O)cc1-2 [Example 21, (R)-11-ethoxy-12-(3-methoxypropoxy)-3,3-dimethyl-8-oxo-2,3,8,13b-tetrahydro-1H-pyrido[2,1-a]pyrrolo[1,2-c]phthalazine-7-carboxylic acid] | 7.5 | > 10000 | – | – |
| COc1cc2c(cc1OCCCOC(C)(C)C)[C@H]1CCC(C)(C)N1n1cc(C(=O)O)c(=O)cc1-2 [Example 65, (R)-12-(3-(tert-butoxy)propoxy)-11-methoxy-3,3-dimethyl-8-oxo-2,3,8,13b-tetrahydro-1H-pyrido[2,1-a]pyrrolo[1,2-c]phthalazine-7-carboxylic acid] | 0.41 | > 10000 | – | – |
| COCCCOc1cc2c(cc1Cl)-c1cc(=O)c(C(=O)O)cn1N1CC(C)(C)C[C@@H]21 (single isomer, unassigned) [Example 30] | 10 | > 10000 | – | – |
| COCCCOc1cc2c(cc1Cl)-c1cc(=O)c(C(=O)O)cn1[C@H]1[C@H]2CCC1(C)C (racemic) [Example 31, trans-10-Chloro-11-(3-methoxypropoxy)-3,3-dimethyl-7-oxo-1,2,3,3a,7,12b-hexahydrocyclopenta[c]pyrido[2,1-a]isoquinoline-6-carboxylic acid] | – | > 10000 | 6.4 | – |
| COCCCOc1cc2c(cc1OC(F)F)-c1cc(=O)c(C(=O)O)cn1N1[C@H]2CCC1(C)C (single isomer, unassigned) [Example 20] | 43 | > 10000 | – | – |
| COCCCOc1cc2c(cc1C1COC1)-c1cc(=O)c(C(=O)O)cn1N1[C@@H]2CCC1(C)C [Example 77, (R)-12-(3-methoxypropoxy)-3,3-dimethyl-11-(oxetan-3-yl)-8-oxo-2,3,8,13b-tetrahydro-1H-pyrido[2,1-a]pyrrolo[1,2-c]phthalazine-7-carboxylic acid] | 12.5 | > 10000 | – | – |
| COCCCOc1cc2c(cc1Cl)-c1cc(=O)c(C(=O)O)cn1N1[C@@H](C)CC[C@@H]21 (single isomer, unassigned) [Example 8] | 200 | > 10000 | – | – |
| COCCCOc1cc2c(cc1OC(F)(F)F)-c1cc(=O)c(C(=O)O)cn1N1[C@@H]2CCC1(C)C [Example 79, (R)-12-(3-methoxypropoxy)-3,3-dimethyl-8-oxo-11-(trifluoromethoxy)-2,3,8,13b-tetrahydro-1H-pyrido[2,1-a]pyrrolo[1,2-c]phthalazine-7-carboxylic acid] | 1.1 | > 10000 | – | – |
| COC(C)(C)C#Cc1cc2c(cc1OC(F)(F)F)-c1cc(=O)c(C(=O)O)cn1N1[C@@H]2CCC1(C)C [Example 90, (R)-12-(3-methoxy-3-methylbut-1-yn-1-yl)-3,3-dimethyl-8-oxo-11-(trifluoromethoxy)-2,3,8,13b-tetrahydro-1H-pyrido[2,1-a]pyrrolo[1,2-c]phthalazine-7-carboxylic acid] | 5 | > 10000 | – | – |
| COC(C)(C)C#Cc1cc2c(cc1Cl)-c1cc(=O)c(C(=O)O)cn1N1[C@@H]2CCC12CC2 [Example 85, (R)-11′-chloro-12′-(3-methoxy-3-methylbut-1-yn-1-yl)-8′-oxo-1′,2′,8′,13b′-tetrahydrospiro[cyclopropane-1,3′-pyrido[2,1-a]pyrrolo[1,2-c]phthalazine]-7′-carboxylic acid] | 4.1 | – | – | > 10000 |
| [2H]C([2H])(OC)C([2H])([2H])C([2H])([2H])Oc1cc2c(cc1COC)-c1cc(=O)c(C(=O)O)cn1N1[C@@H]2CCC1(C)C [Compound 118, (R)-11-(methoxymethyl)-12-(3-methoxypropoxy-1,1,2,2,3,3-d6)-3,3-dimethyl-8-oxo-2,3,8,13b-tetrahydro-1H-pyrido[2,1-a]pyrrolo[1,2-c]phthalazine-7-carboxylic acid] | 4.1 | > 10000 | – | – |
| COCc1cc2c(cc1C#CC(C)(C)OC)[C@H]1CCC(C)(C)N1n1cc(C(=O)O)c(=O)cc1-2 [Example 97, (R)-12-(3-methoxy-3-methylbut-1-yn-1-yl)-11-(methoxymethyl)-3,3-dimethyl-8-oxo-2,3,8,13b-tetrahydro-1H-pyrido[2,1-a]pyrrolo[1,2-c]phthalazine-7-carboxylic acid] | 8.6 | > 10000 | – | – |
